Source: ChEMBL document CHEMBL3885861, “Open TG-GATES”

Organism: Rattus norvegicus
Experiment: Open TG-GATES - Regimen: Daily Repeat
Format: toxicity, organism-based, Sprague-Dawley
Set-up: regimen Daily Repeat, gender Male, age 6 weeks
Conditions: in vivo, po, 0 mg/kg, route gavage, dose level Control; for APTT / Bas / Eos / Fbg / Hb / Ht / Lym / MCH / MCHC / MCV / Mono / Neu / PT / Plat / RBC / Ret / WBC: tissue Blood; for KIDNEY_L / KIDNEY_R / KIDNEY_TOTAL: tissue Kidney; for LIVER: tissue Liver; for A/G / ALP / ALT / AST / BUN / CRE / Ca / Cl / DBIL / GLC / IP / K / LDH / Na / PL / RALB / TBIL / TC / TG / TP / gamma-GTP: tissue Plasma

CN(C/C=C/C#CC(C)(C)C)Cc1cccc2ccccc12 [TERBINAFINE]
TERMINAL_BW (72 h, time 3 day): 243.5 g
APTT (72 h, time 3 day): 18.4 s
Bas (72 h, time 3 day): 0.8%
Eos (72 h, time 3 day): 1%
Fbg (72 h, time 3 day): 227.8 mg/dL
Hb (72 h, time 3 day): 13.5 g/dL
Ht (72 h, time 3 day): 39.9%
Lym (72 h, time 3 day): 76%
MCH (72 h, time 3 day): 21.5 pg
MCHC (72 h, time 3 day): 33.8%
MCV (72 h, time 3 day): 63.4 fL
Mono (72 h, time 3 day): 3%
Neu (72 h, time 3 day): 19.2%
PT (72 h, time 3 day): 11.8 s
Plat (72 h, time 3 day): 117.2 x10_4/uL
RBC (72 h, time 3 day): 629 x10_4/ul
Ret (72 h, time 3 day): 5.9%
WBC (72 h, time 3 day): 104.3 x10_2/uL
KIDNEY_L (72 h, time 3 day): 1.1 g
KIDNEY_R (72 h, time 3 day): 1.1 g
KIDNEY_TOTAL (72 h, time 3 day): 2.2 g
LIVER (72 h, time 3 day): 11.8 g
A/G (72 h, time 3 day): 1.6
ALP (72 h, time 3 day): 804.6 IU/L
ALT (72 h, time 3 day): 34.2 IU/L
AST (72 h, time 3 day): 66.8 IU/L
BUN (72 h, time 3 day): 14.4 mg/dL
CRE (72 h, time 3 day): 0.4 mg/dL
Ca (72 h, time 3 day): 10.8 mg/dL
Cl (72 h, time 3 day): 103.4 meq/L
DBIL (72 h, time 3 day): 0.098 mg/dL
GLC (72 h, time 3 day): 192.8 mg/dL
IP (72 h, time 3 day): 7.3 mg/dL
K (72 h, time 3 day): 4.2 meq/L
LDH (72 h, time 3 day): 191.8 IU/L
Na (72 h, time 3 day): 141.6 meq/L
PL (72 h, time 3 day): 147.6 mg/dL
RALB (72 h, time 3 day): 3.5 g/dL
TBIL (72 h, time 3 day): 0.2 mg/dL
TC (72 h, time 3 day): 74.6 mg/dL
TG (72 h, time 3 day): 99.2 mg/dL
TP (72 h, time 3 day): 5.6 g/dL
gamma-GTP (72 h, time 3 day): 2 IU/L
TERMINAL_BW ([…], time 7 day): 279 g
TERMINAL_BW ([…], time 14 day): 323.8 g
TERMINAL_BW ([…], time 28 day): 389.8 g
APTT ([…], time 7 day): 18.7 s
Bas ([…], time 7 day): 1%
Eos ([…], time 7 day): 1%
Fbg ([…], time 7 day): 236 mg/dL
Hb ([…], time 7 day): 13.9 g/dL
Ht ([…], time 7 day): 41%
Lym ([…], time 7 day): 79.6%
MCH ([…], time 7 day): 20.8 pg
MCHC ([…], time 7 day): 33.8%
MCV ([…], time 7 day): 61.4 fL
Mono ([…], time 7 day): 2.8%
Neu ([…], time 7 day): 15.6%
PT ([…], time 7 day): 11.7 s
Plat ([…], time 7 day): 121.9 x10_4/uL
RBC ([…], time 7 day): 669.2 x10_4/ul
Ret ([…], time 7 day): 5.2%
WBC ([…], time 7 day): 118.9 x10_2/uL
APTT ([…], time 14 day): 19.6 s
Bas ([…], time 14 day): 1%
Eos ([…], time 14 day): 0.8%
Fbg ([…], time 14 day): 220.4 mg/dL
Hb ([…], time 14 day): 14.7 g/dL
Ht ([…], time 14 day): 43.1%
Lym ([…], time 14 day): 84.2%
MCH ([…], time 14 day): 20.1 pg
MCHC ([…], time 14 day): 34.1%
MCV ([…], time 14 day): 59.1 fL
Mono ([…], time 14 day): 2.2%
Neu ([…], time 14 day): 12.2%
PT ([…], time 14 day): 11.5 s
Plat ([…], time 14 day): 109.6 x10_4/uL
RBC ([…], time 14 day): 729.8 x10_4/ul
Ret ([…], time 14 day): 4%
WBC ([…], time 14 day): 106.5 x10_2/uL
APTT ([…], time 28 day): 20 s
Bas ([…], time 28 day): 1%
Eos ([…], time 28 day): 1.2%
Fbg ([…], time 28 day): 230.6 mg/dL
Hb ([…], time 28 day): 15.5 g/dL
Ht ([…], time 28 day): 43.8%
Lym ([…], time 28 day): 80%
MCH ([…], time 28 day): 20.4 pg
MCHC ([…], time 28 day): 35.4%
MCV ([…], time 28 day): 57.8 fL
Mono ([…], time 28 day): 2.4%
Neu ([…], time 28 day): 15.8%
PT ([…], time 28 day): 12 s
Plat ([…], time 28 day): 116.1 x10_4/uL
RBC ([…], time 28 day): 757.6 x10_4/ul
Ret ([…], time 28 day): 2.5%
WBC ([…], time 28 day): 135.2 x10_2/uL
KIDNEY_L ([…], time 7 day): 1.2 g
KIDNEY_R ([…], time 7 day): 1.2 g
KIDNEY_TOTAL ([…], time 7 day): 2.5 g
KIDNEY_L ([…], time 14 day): 1.2 g
KIDNEY_R ([…], time 14 day): 1.2 g
KIDNEY_TOTAL ([…], time 14 day): 2.5 g
KIDNEY_L ([…], time 28 day): 1.4 g
KIDNEY_R ([…], time 28 day): 1.4 g
KIDNEY_TOTAL ([…], time 28 day): 2.8 g
LIVER ([…], time 7 day): 13.3 g
LIVER ([…], time 14 day): 13.3 g
LIVER ([…], time 28 day): 15.6 g
A/G ([…], time 7 day): 1.5
ALP ([…], time 7 day): 874.6 IU/L
ALT ([…], time 7 day): 33.6 IU/L
AST ([…], time 7 day): 68.2 IU/L
BUN ([…], time 7 day): 15.4 mg/dL
CRE ([…], time 7 day): 0.4 mg/dL
Ca ([…], time 7 day): 10.7 mg/dL
Cl ([…], time 7 day): 102.8 meq/L
DBIL ([…], time 7 day): 0.094 mg/dL
GLC ([…], time 7 day): 201.8 mg/dL
IP ([…], time 7 day): 7.8 mg/dL
K ([…], time 7 day): 4.5 meq/L
LDH ([…], time 7 day): 212.4 IU/L
Na ([…], time 7 day): 141.8 meq/L
PL ([…], time 7 day): 140.2 mg/dL
RALB ([…], time 7 day): 3.5 g/dL
TBIL ([…], time 7 day): 0.1 mg/dL
TC ([…], time 7 day): 69.4 mg/dL
TG ([…], time 7 day): 95.8 mg/dL
TP ([…], time 7 day): 5.8 g/dL
gamma-GTP ([…], time 7 day): 0.8 IU/L
A/G ([…], time 14 day): 1.4
ALP ([…], time 14 day): 734.4 IU/L
ALT ([…], time 14 day): 34.8 IU/L
AST ([…], time 14 day): 67.2 IU/L
BUN ([…], time 14 day): 16 mg/dL
CRE ([…], time 14 day): 0.4 mg/dL
Ca ([…], time 14 day): 10.6 mg/dL
Cl ([…], time 14 day): 105 meq/L
DBIL ([…], time 14 day): 0.1 mg/dL
GLC ([…], time 14 day): 208.4 mg/dL
IP ([…], time 14 day): 7.2 mg/dL
K ([…], time 14 day): 3.7 meq/L
LDH ([…], time 14 day): 188.8 IU/L
Na ([…], time 14 day): 142.8 meq/L
PL ([…], time 14 day): 132.8 mg/dL
RALB ([…], time 14 day): 3.4 g/dL
TBIL ([…], time 14 day): 0.2 mg/dL
TC ([…], time 14 day): 63.6 mg/dL
TG ([…], time 14 day): 108 mg/dL
TP ([…], time 14 day): 5.8 g/dL
gamma-GTP ([…], time 14 day): 1 IU/L
A/G ([…], time 28 day): 1.3
ALP ([…], time 28 day): 719.6 IU/L
ALT ([…], time 28 day): 33.8 IU/L
AST ([…], time 28 day): 65.8 IU/L
BUN ([…], time 28 day): 17.6 mg/dL
CRE ([…], time 28 day): 0.5 mg/dL
Ca ([…], time 28 day): 10.5 mg/dL
Cl ([…], time 28 day): 104.4 meq/L
DBIL ([…], time 28 day): 0.092 mg/dL
GLC ([…], time 28 day): 226.4 mg/dL
IP ([…], time 28 day): 6.9 mg/dL
K ([…], time 28 day): 4 meq/L
LDH ([…], time 28 day): 224.4 IU/L
Na ([…], time 28 day): 141.8 meq/L
PL ([…], time 28 day): 129.2 mg/dL
RALB ([…], time 28 day): 3.5 g/dL
TBIL ([…], time 28 day): 0.2 mg/dL
TC ([…], time 28 day): 62.6 mg/dL
TG ([…], time 28 day): 110.2 mg/dL
TP ([…], time 28 day): 6 g/dL
gamma-GTP ([…], time 28 day): 1.4 IU/L
